From the NIST ThermoML archive (doi:10.1016/j.jct.2017.02.022)
± gives the expanded uncertainty stated by the source.

Key:
[1] = refractive index (Na D-line) (dimensionless); xn = mol fraction of the nth substance listed; details: 101.3 kPa, Liquid, Standard Abbe refractometry, x2 = 0
[2] = xn = mol fraction of the nth substance listed; details: 101.3 kPa, Liquid, x2 = 0; for speed of sound: Frequency=3 MHz, Sing-around technique in a fixed-path interferometer; for mass density: Vibrating tube method
[3] = refractive index (Na D-line) (dimensionless); details: 101.3 kPa, Liquid, Standard Abbe refractometry
[4] = 101.3 kPa, Liquid; for speed of sound: Frequency=3 MHz, Sing-around technique in a fixed-path interferometer; for mass density: Vibrating tube method
[5] = molar heat capacity at constant pressure; details: 101.33 kPa, Liquid, Small sample (50 mg) DSC

Row | SMILES | refractive index ([1]; 298 K) | refractive index ([1]; 303 K) | refractive index ([1]; 308 K) | refractive index ([1]; 313 K) | speed of sound ([2]; 298 K) | mass density ([2]; 298 K) | speed of sound ([2]; 303 K) | mass density ([2]; 303 K) | speed of sound ([2]; 308 K) | mass density ([2]; 308 K) | speed of sound ([2]; 313 K) | mass density ([2]; 313 K) | refractive index ([3]; 298 K) | refractive index ([3]; 303 K) | refractive index ([3]; 308 K) | refractive index ([3]; 313 K) | speed of sound ([4]; 298 K) | mass density ([4]; 298 K) | speed of sound ([4]; 303 K) | mass density ([4]; 303 K) | further results
1 | CCCCO [butan-1-ol] + CCn1cc[n+](C)c1.COS(=O)(=O)[O-] | 1.397 ± 0.01 | 1.395 ± 0.01 | 1.392 ± 0.01 | 1.389 ± 0.01 | 1240 ± 20 m/s | 806 ± 2 kg/m3 | 1224 ± 20 m/s | 802 ± 2 kg/m3 | 1206 ± 20 m/s | 798 ± 2 kg/m3 | 1190 ± 20 m/s | 794 ± 2 kg/m3 | – | – | – | – | – | – | – | – | –
2 | CCCCO [butan-1-ol] | – | – | – | – | – | – | – | – | – | – | – | – | 1.397 ± 0.01 | 1.395 ± 0.01 | 1.392 ± 0.01 | 1.389 ± 0.01 | 1240 ± 20 m/s | 806 ± 2 kg/m3 | 1224 ± 20 m/s | 802 ± 2 kg/m3 | speed of sound ([4]; 308 K): 1206 ± 20 m/s; mass density ([4]; 308 K): 798 ± 2 kg/m3; speed of sound ([4]; 313 K): 1190 ± 20 m/s; mass density ([4]; 313 K): 794 ± 2 kg/m3
3 | CCn1cc[n+](C)c1.COS(=O)(=O)[O-] [1-ethyl-3-methylimidazolium methylsulfate] | – | – | – | – | – | – | – | – | – | – | – | – | 1.48 ± 0.01 | 1.479 ± 0.01 | 1.478 ± 0.01 | 1.476 ± 0.01 | 1762 ± 20 m/s | 1292 ± 2 kg/m3 | 1750 ± 20 m/s | 1289 ± 2 kg/m3 | molar heat capacity at constant pressure ([5]; 298 K): 313.3 ± 40 J/K/mol; molar heat capacity at constant pressure ([5]; 303 K): 319.9 ± 40 J/K/mol; molar heat capacity at constant pressure ([5]; 308 K): 326.6 ± 40 J/K/mol; molar heat capacity at constant pressure ([5]; 313 K): 333.2 ± 40 J/K/mol; speed of sound ([4]; 308 K): 1739 ± 20 m/s; mass density ([4]; 308 K): 1285 ± 2 kg/m3; speed of sound ([4]; 313 K): 1727 ± 20 m/s; mass density ([4]; 313 K): 1282 ± 2 kg/m3
4 | CCCCCO [pentan-1-ol] + COS(=O)(=O)[O-].Cn1cc[n+](C)c1 | 1.408 ± 0.01 | 1.407 ± 0.01 | 1.406 ± 0.01 | 1.404 ± 0.01 | 1276 ± 20 m/s | 811 ± 2 kg/m3 | 1259 ± 20 m/s | 807 ± 2 kg/m3 | 1242 ± 20 m/s | 803 ± 2 kg/m3 | 1226 ± 20 m/s | 800 ± 2 kg/m3 | – | – | – | – | – | – | – | – | –
5 | CCCO [propan-1-ol] + CCn1cc[n+](C)c1.COS(=O)(=O)[O-] | 1.383 ± 0.01 | 1.382 ± 0.01 | 1.38 ± 0.01 | 1.378 ± 0.01 | 1208 ± 20 m/s | 800 ± 2 kg/m3 | 1191 ± 20 m/s | 796 ± 2 kg/m3 | 1174 ± 20 m/s | 792 ± 2 kg/m3 | 1158 ± 20 m/s | 789 ± 2 kg/m3 | – | – | – | – | – | – | – | – | –
6 | COS(=O)(=O)[O-].Cn1cc[n+](C)c1 [1,3-dimethylimidazolium methylsulfate] | – | – | – | – | – | – | – | – | – | – | – | – | 1.483 ± 0.01 | 1.481 ± 0.01 | 1.48 ± 0.01 | 1.479 ± 0.01 | 1811 ± 20 m/s | 1329 ± 4 kg/m3 | 1799 ± 20 m/s | 1322 ± 4 kg/m3 | molar heat capacity at constant pressure ([5]; 298 K): 298.1 ± 40 J/K/mol; molar heat capacity at constant pressure ([5]; 303 K): 303.1 ± 40 J/K/mol; molar heat capacity at constant pressure ([5]; 308 K): 308 ± 40 J/K/mol; molar heat capacity at constant pressure ([5]; 313 K): 312.9 ± 40 J/K/mol; speed of sound ([4]; 308 K): 1787 ± 20 m/s; mass density ([4]; 308 K): 1319 ± 4 kg/m3; speed of sound ([4]; 313 K): 1775 ± 20 m/s; mass density ([4]; 313 K): 1315 ± 4 kg/m3
7 | CCCO [propan-1-ol] + COS(=O)(=O)[O-].Cn1cc[n+](C)c1 | 1.383 ± 0.01 | 1.382 ± 0.01 | 1.38 ± 0.01 | 1.378 ± 0.01 | 1208 ± 20 m/s | 800 ± 2 kg/m3 | 1191 ± 20 m/s | 796 ± 2 kg/m3 | 1174 ± 20 m/s | 792 ± 2 kg/m3 | 1158 ± 20 m/s | 789 ± 2 kg/m3 | – | – | – | – | – | – | – | – | –
8 | CCCCCO [pentan-1-ol] | – | – | – | – | – | – | – | – | – | – | – | – | 1.408 ± 0.01 | 1.407 ± 0.01 | 1.406 ± 0.01 | 1.404 ± 0.01 | 1276 ± 20 m/s | 811 ± 2 kg/m3 | 1259 ± 20 m/s | 807 ± 2 kg/m3 | speed of sound ([4]; 308 K): 1242 ± 20 m/s; mass density ([4]; 308 K): 803 ± 2 kg/m3; speed of sound ([4]; 313 K): 1226 ± 20 m/s; mass density ([4]; 313 K): 800 ± 2 kg/m3
9 | CCCCO [butan-1-ol] + COS(=O)(=O)[O-].Cn1cc[n+](C)c1 | 1.397 ± 0.01 | 1.395 ± 0.01 | 1.392 ± 0.01 | 1.389 ± 0.01 | 1240 ± 20 m/s | 806 ± 2 kg/m3 | 1224 ± 20 m/s | 802 ± 2 kg/m3 | 1206 ± 20 m/s | 798 ± 2 kg/m3 | 1190 ± 20 m/s | 794 ± 2 kg/m3 | – | – | – | – | – | – | – | – | –
10 | CCCCCO [pentan-1-ol] + CCn1cc[n+](C)c1.COS(=O)(=O)[O-] | 1.408 ± 0.01 | 1.407 ± 0.01 | 1.406 ± 0.01 | 1.404 ± 0.01 | 1276 ± 20 m/s | 811 ± 2 kg/m3 | 1259 ± 20 m/s | 807 ± 2 kg/m3 | 1242 ± 20 m/s | 803 ± 2 kg/m3 | 1226 ± 20 m/s | 800 ± 2 kg/m3 | – | – | – | – | – | – | – | – | –
11 | CCCO [propan-1-ol] | – | – | – | – | – | – | – | – | – | – | – | – | 1.383 ± 0.01 | 1.382 ± 0.01 | 1.38 ± 0.01 | 1.378 ± 0.01 | 1208 ± 20 m/s | 800 ± 2 kg/m3 | 1191 ± 20 m/s | 796 ± 2 kg/m3 | speed of sound ([4]; 308 K): 1174 ± 20 m/s; mass density ([4]; 308 K): 792 ± 2 kg/m3; speed of sound ([4]; 313 K): 1158 ± 20 m/s; mass density ([4]; 313 K): 789 ± 2 kg/m3
